Data from patent US9493444B2 (Merck Patent GmbH, priority 2012, dated 2016).

System: Wnt pathway (TCF-dependent transcription in HEK293 luciferase reporter cell line with ER-DSH construct)
Assay: Cellular assay for Wnt pathway activity (luciferase reporter)
Type: cell-based
Details: Homo sapiens; Wnt pathway inhibition, HEK293 luciferase reporter cells (ER-DSH, TCF promoter), 24 hours incubation, estrogen-induced
Description: 1. Cellular Assay for Wnt Pathway Activity
Compounds were tested for their Wnt pathway inhibitory activities using a luciferase reporter cell based assay. A HEK293 luciferase reporter cell line was used which contained an Estrogen Receptor-Dishevelled (ER-DSH) construct and a T-Cell Factor (TCF) dependent gene promoter luciferase construct.
Compounds, in concentrations from 30 μM down to 1 nM, were incubated for 24 hours on the cells, which were induced for TCF-dependent transcription by the addition of estrogen (10). Luciferase activities were determined using the ONE GLO Luciferase Assay System (Promega) and the ENVISION microplate reader (Perkin Elmer). For analysis, the obtained data were normalized against the untreated vehicle control and fitted for determination of the IC50 values using the Assay Explorer software (Accelrys).

Row | Structure (SMILES) | IC50 [nM]
1 | CC(=O)N(C)CCN(C)c1cncc(Oc2ccc(F)cc2)n1 [Compound 4, N-(2-{[6-(4-Fluoro-phenoxy)-pyrazin-2-yl]-methyl-amino}-ethyl)-N-methyl-acetamide] | 200 to 1000
2 | CC(=O)N(C)CCN(C)c1cncc(Oc2ccc(B(O)O)cc2)n1 [Compound 7, 4-(6-{[2-(Acetyl-methyl-amino)-ethyl]-methyl-amino}-pyrazin-2-yloxy)-boronic acid] | 200 to 1000
3 | CC(=O)N(C)CCN(C)c1cncc(Oc2ccc(-c3ccc(CO)nc3)cc2)n1 [Compound 8, N-[2-({6-[4-(6-Hydroxymethyl-pyridin-3-yl)-phenoxy]-pyrazin-2-yl}-methyl-amino)-ethyl]-N-methyl-acetamide] | < 200
4 | CC(=O)N(C)CCN(C)c1cncc(Oc2ccc(-c3cccc(N4CCN(C)CC4)n3)cc2)n1 [Compound 12] | < 200
5 | CCN(CCSc1cncc(Oc2ccc(-c3ccc(C)cn3)cc2)n1)C(C)=O [Compound 17, N-Ethyl-N-(2-{6-[4-(5-methyl-pyridin-2-yl)-phenoxy]-pyrazin-2-ylsulfanyl}-ethyl)-acetamide] | < 200
6 | CC(=O)N(C)CCNc1cncc(Oc2ccc(-c3ccc(C)cn3)cc2)n1 [Compound 19, N-Methyl-N-(2-{6-[4-(5-methyl-pyridin-2-yl)-phenoxy]-pyrazin-2-ylamino}-ethyl)-acetamide] | < 200
7 | O=C1CCCCN1CCCc1cncc(Oc2ccc(-c3ccc(N4CCOCC4)nc3)cc2)n1 [Compound 25, 1-(3-{6-[4-(6-Morpholin-4-yl-pyridin-3-yl)-phenoxy]-pyrazin-2-yl}-propyl)-piperidin-2-one] | < 200
8 | CNC(=O)CCN(C)c1cncc(Oc2ccc(F)cc2)n1 [Compound 29] | 200 to 1000
9 | COc1ccc(Oc2cncc(N(C)CCN(C)C(C)=O)n2)cc1 [Compound 30, N-(2-{[6-(4-Methoxy-phenoxy)-pyrazin-2-yl]-methyl-amino}-ethyl)-N-methyl-acetamide] | 200 to 1000
10 | COc1ccc(Oc2cncc(N(C)CCN(C)C(=O)CC(C)(C)C)n2)cc1 [Compound 32, N-(2-{[6-(4-Methoxy-phenoxy)-pyrazin-2-yl]-methyl-amino}-ethyl)-3,3-N-trimethyl-butyramide] | 1000 to 10000
11 | COc1ccc(Oc2cncc(N(C)CCN(C)C(=O)Cc3cccs3)n2)cc1 [Compound 33, N-(2-{[6-(4-Methoxy-phenoxy)-pyrazin-2-yl]-methyl-amino}-ethyl)-N-methyl-2-thiophen-2-yl-acetamide] | 1000 to 10000
12 | CCC(=O)N(C)CCN(C)c1cncc(Oc2ccc(F)cc2)n1 [Compound 34, N-(2-{[6-(4-Fluoro-phenoxy)pyrazin-2-yl]-methyl-amino}-ethyl)-N-methyl-propionamide] | 1000 to 10000
13 | CCC(=O)N(C)CCN(C)c1cncc(Oc2ccc(OC)cc2)n1 [Compound 35, N-(2-{[6-(4-Methoxy-phenoxy)-pyrazin-2-yl]-methyl-amino}-ethyl)-N-methyl-propionamide] | 1000 to 10000
14 | CC(=O)N(C)CCN(C)c1cncc(Oc2ccc(Cl)cc2)n1 [Compound 36, N-(2-{[6-(4-Chloro-phenoxy)-pyrazin-2-yl]-methyl-amino}-ethyl)-N-methyl-acetamide] | 200 to 1000
15 | CC(=O)N(C)CCN(C)c1cncc(Oc2ccc(Br)cc2)n1 [Compound 37, N-(2-{[6-(4-Bromo-phenoxy)-pyrazin-2-yl]-methyl-amino}-ethyl)-N-methyl-acetamide] | < 200
16 | COc1ccc(Oc2cncc(NCC3CCCN(C(C)=O)C3)n2)cc1 (centres unmarked) [Compound 38, 1-(3-{[6-(4-Methoxy-phenoxy)-pyrazin-2-ylamino]-methyl}-piperidin-1-yl)-ethanone] | 1000 to 10000
17 | CC(=O)N1CCCC(CNc2cncc(Oc3ccc(F)cc3)n2)C1 (centres unmarked) [Compound 39, 1-(3-{[6-(4-Fluoro-phenoxy)-pyrazin-2-ylamino]-methyl}-piperidin-1-yl)-ethanone] | 1000 to 10000
18 | COc1ccc(Oc2cncc(N3CCCC(CNC(=O)OC(C)(C)C)C3)n2)cc1 (centres unmarked) [Compound 40, {1-[6-(4-Methoxy-phenoxy)-pyrazin-2-yl]-piperidin-3-ylmethyl}-carbamic acid tert-butyl ester] | 1000 to 10000
19 | COc1cccc(Oc2cncc(N(C)CCN(C)C(C)=O)n2)c1 [Compound 41, N-(2-{[6-(3-Methoxy-phenoxy)-pyrazin-2-yl]-methyl-amino}-ethyl)-N-methyl-acetamide] | 1000 to 10000
20 | CC(=O)N(C)CCN(C)c1cncc(OC2CCCC2)n1 [Compound 43, N-{2-[(6-Cyclo-pentyloxy-pyrazin-2-yl)-methyl-amino]-ethyl}-N-methyl-acetamide] | 1000 to 10000
21 | CC(=O)N(C)CCN(C)c1cncc(Oc2cccc(C)c2)n1 [Compound 44, N-Methyl-N-{2-[methyl-(6-m-tolyloxy-pyrazin-2-yl)-amino]-ethyl}-acetamide] | 1000 to 10000

Row | Structure (SMILES) | IC50 [nM]
22 | CCOC(=O)c1cccc(Oc2cncc(N(C)CCN(C)C(C)=O)n2)c1 [Compound 45, 3-(6-{[2-(Acetyl-methyl-amino)-ethyl]-methyl-amino}-pyrazin-2-yloxy)-benzoic acid ethyl ester] | 1000 to 10000
23 | CNCCN(C)c1cncc(OC2CCCCC2)n1 [Compound 46, N-(6-Cyclo-hexyloxy-pyrazin-2-yl)-N,N′-dimethyl-ethane-1,2-diamine] | 200 to 1000
24 | CC(=O)N(C)CCN(C)c1cncc(Oc2ccc3ncccc3c2)n1 [Compound 47, N-Methyl-N-(2-{methyl-[6-(quinolin-6-yloxy)-pyrazin-2-yl]-amino}-ethyl)-acetamide] | 1000 to 10000
25 | CC(=O)N(C)CCN(C)c1cncc(OC2CCCCC2)n1 [Compound 48, N-{2-[(6-Cyclo-hexyloxy-pyrazin-2-yl)-methyl-amino]-ethyl}-N-methyl-acetamide] | 1000 to 10000
26 | COc1ccc(Oc2cncc(N3CCCC(CNC(C)=O)C3)n2)cc1 (centres unmarked) [Compound 49, N-{1-[6-(4-Methoxy-phenoxy)-pyrazin-2-yl]-piperidin-3-ylmethyl}-acetamide] | 1000 to 10000
27 | CSc1cccc(Oc2cncc(N(C)CCN(C)C(C)=O)n2)c1 [Compound 50, N-Methyl-N-(2-{methyl-[6-(3-methyl-sulfanyl-phenoxy)-pyrazin-2-yl]-amino}-ethyl)-acetamide] | 200 to 1000
28 | CC(=O)N(C)CCN(C)c1cncc(Oc2ccccc2F)n1 [Compound 51, N-(2-{[6-(2-Fluoro-phenoxy)-pyrazin-2-yl]-methyl-amino}-ethyl)-N-methyl-acetamide] | 200 to 1000
29 | CC(=O)N(C)CCN(C)c1cncc(Oc2ccc(C)cc2)n1 [Compound 52, N-Methyl-N-{2-[methyl-(6-p-tolyloxy-pyrazin-2-yl)-amino]-ethyl}-acetamide] | < 200
30 | COc1ccc(Oc2cncc(N(C)CCN(C)C(=O)Cc3sccc3Cl)n2)cc1 [Compound 53, 2-(3-Chloro-thiophen-2-yl)-N-(2-{[6-(4-methoxy-phenoxy)-pyrazin-2-yl]-methyl-amino}-ethyl)-N-methyl-acetamide] | 1000 to 10000
31 | COc1ccc(Oc2cncc(N(C)CCNC(=O)OC(C)(C)C)n2)cc1 [Compound 54, (2-{[6-(4-Methoxy-phenoxy)-pyrazin-2-yl]-methyl-amino}-ethyl)-carbamic acid tert-butyl ester] | 1000 to 10000
32 | CC(=O)N(C)CCN(C)c1cncc(Oc2ccc3cccnc3c2)n1 [Compound 55, N-Methyl-N-(2-{methyl-[6-(quinolin-7-yloxy)-pyrazin-2-yl]-amino}-ethyl)-acetamide] | 1000 to 10000
33 | CC(=O)N(C)CCN(C)c1cncc(Oc2ccc(O)cc2)n1 [Compound 56, N-(2-{[6-(4-Hydroxy-phenoxy)-pyrazin-2-yl]-methyl-amino}-ethyl)-N-methyl-acetamide] | 200 to 1000
34 | COc1ccc(Oc2cncc(NCC3CCCN3C(C)=O)n2)cc1 (centres unmarked) [Compound 57, 1-(2-{[6-(4-Methoxy-phenoxy)-pyrazin-2-ylamino]-methyl}-pyrrolidin-1-yl)-ethanone] | 1000 to 10000
35 | CC(=O)NCCN(C)c1cncc(Oc2ccc(F)cc2)n1 [Compound 58, N-(2-{[6-(4-Fluoro-phenoxy)-pyrazin-2-yl]-methyl-amino}-ethyl)-acetamide] | 1000 to 10000
36 | COc1ccc(Oc2cncc(N(C)CCNC(C)=O)n2)cc1 [Compound 59, N-(2-{[6-(4-Methoxy-phenoxy)-pyrazin-2-yl]-methyl-amino}-ethyl)-acetamide] | 200 to 1000
37 | COc1ccc(Oc2cncc(N(C)CCN(C)S(=O)(=O)c3ccc(F)cc3F)n2)cc1 [Compound 60, 2,4-Difluoro-N-(2-{[6-(4-methoxy-phenoxy)-pyrazin-2-yl]-methyl-amino}-ethyl)-N-methyl-benzene-sulfonamide] | 1000 to 10000
38 | COc1ccc(Oc2cncc(N(C)CCN(C)S(=O)(=O)c3cc(F)ccc3F)n2)cc1 [Compound 61, 2,5-Difluoro-N-(2-{[6-(4-methoxy-phenoxy)-pyrazin-2-yl]-methyl-amino}-ethyl)-N-methyl-benzene-sulfonamide] | 1000 to 10000
39 | CC(=O)N1CCCC1CNc1cncc(Oc2ccc(F)cc2)n1 (centres unmarked) [Compound 62, 1-(2-{[6-(4-Fluoro-phenoxy)-pyrazin-2-ylamino]-methyl}-pyrrolidin-1-yl)-ethanone] | 1000 to 10000
40 | COc1ccc(Oc2cncc(N(C)CCN(C)C(=O)Cc3ccc(F)cc3)n2)cc1 [Compound 63, 2-(4-Fluoro-phenyl)-N-(2-{[6-(4-methoxy-phenoxy)-pyrazin-2-yl]-methyl-amino}-ethyl)-N-methyl-acetamide] | 1000 to 10000
41 | COc1ccc(Oc2cncc(N(C)CCN(C)C(=O)CCC(C)C)n2)cc1 [Compound 64, 4-Methyl-pentanoic acid (2-{[6-(4-methoxy-phenoxy)-pyrazin-2-yl]-methyl-amino}-ethyl)-methyl-amide] | 1000 to 10000
